According to ChEMBL document CHEMBL5370544, “Design, synthesis, and biological evaluation of 1-styrenyl isoquinoline derivatives for anti-hepatocellular carcinoma activity and effect on mitochondria” (Eur J Med Chem, 2023):
pIC50: −log10 of the molar value. Active and inactive are the calls of the source.

Legend:
SK-HEP1 [1] = experiment: Antiproliferative activity against human SK-HEP1 cells assessed as inhibition of cell growth measured after 72 hrs by MTT assay; format: functional, cell-based
Huh-7 [2] = experiment: Induction of apoptosis in human Huh-7 cells assessed as increase in cleaved caspase-9 expression at 0.9 to 8.1 uM incubated for 48 hrs by Western blotting analysis; format: functional, cell-based; conditions: dose 0.9-8.1 µM
Huh-7 [3] = experiment: Induction of cell cycle arrest in human Huh-7 cells assessed as increase in accumulation of cells at G2/M phase incubated for 24 hrs by propidium iodide staining based flow cytometry analysis; format: functional; conditions: dose 0.9-8.1 µM
SK-HEP1 [4] = experiment: Induction of apoptosis in human SK-HEP1 cells assessed as increase in cleaved caspase-9 expression at 1.5 to 13.5 uM incubated for 48 hrs by Western blotting analysis; format: functional, cell-based; conditions: dose 1.5-13.5 µM
Huh-7 [5] = experiment: Antitumor activity against human Huh-7 cells xenografted in ip dosed BALB/c mouse assessed as reduction in tumor weight measured after 14 days; format: functional, organism-based; conditions: dose 15-30 mg/kg, time 14.0 day
SK-HEP1 [6] = experiment: Induction of mitochondrial membrane potential depolarization in human SK-HEP1 cells incubated for 24 hrs by TMRE staining based flow cytometry analysis; format: functional, cell-based; conditions: dose 1.5-13.5 µM
Huh-7 [7] = experiment: Inhibition of cell migration in human Huh-7 cells at 0.55 to 2.2 uM incubated for 24 hrs by crystal violet staining based transwell migration assay; format: functional; conditions: dose 0.55-2.2 µM
Huh-7 [8] = experiment: Antitumor activity against human Huh-7 cells xenografted in BALB/c mouse assessed as reduction in tumor volume at 15 to 30 mg/kg, ip qd; format: functional, organism-based; conditions: dose 15-30 mg/kg, time 14.0 day, TDE = time-dependent effect
Huh-7 [9] = experiment: Induction of cell cycle arrest in human Huh-7 cells assessed as decrease in cyclin B1 expression incubated for 48 hrs by Western blotting analysis; format: functional, cell-based; conditions: dose 0.9-8.1 µM
SK-HEP1 [10] = experiment: Induction of apoptosis in human SK-HEP1 cells assessed as increase in cleaved caspase-3 expression at 1.5 to 13.5 uM incubated for 48 hrs by Western blotting analysis; format: functional, cell-based; conditions: dose 1.5-13.5 µM
[11] = Acute toxicity in BALB/c mouse assessed as change in body weight at 650 mg/kg, ip measured at day 2; format: organism-based; conditions: in vivo, 48 h, time 2 day
SK-HEP1 [12] = experiment: Induction of cell cycle arrest in human SK-HEP1 cells assessed as decrease in CDK1 expression incubated for 48 hrs by Western blotting analysis; format: functional, cell-based; conditions: dose 1.5-13.5 µM
SK-HEP1 [13] = experiment: Induction of apoptosis in human SK-HEP1 cells assessed as increase in proportion of early apoptosis at 1.5 to 13.5 uM incubated for 24 hrs by Annexin V-AbFluor 488/propidium iodide staining based flow cytometry analysis; format: functional, cell-based; conditions: dose 1.5-13.5 µM
Huh-7 [14] = experiment: Induction of apoptosis in human Huh-7 cells assessed as increase in cleaved caspase-3 expression at 0.9 to 8.1 uM incubated for 48 hrs by Western blotting analysis; format: functional, cell-based; conditions: dose 0.9-8.1 µM
SK-HEP1 [15] = experiment: Induction of apoptosis in human SK-HEP1 cells assessed as increase in cytochrome-C expression at 1.5 to 13.5 uM incubated for 48 hrs by Western blotting analysis; format: functional, cell-based; conditions: dose 1.5-13.5 µM
Huh-7 [16] = experiment: Induction of apoptosis in human Huh-7 cells assessed as formation of apoptotic bodies at 0.9 to 8.1 uM incubated for 24 hrs by giemsa staining based micrscopic analysis; format: functional, cell-based; conditions: dose 0.9-8.1 µM
SK-HEP1 [17] = experiment: Induction of ROS production in human SK-HEP1 cells assessed as increase in intracellular ROS level at 1.5 to 13.5 uM incubated for 24 hrs by DCFH-DA staining based fluorescence assay; format: functional, cell-based; conditions: dose 1.5-13.5 µM
Huh-7 [18] = experiment: Antitumor activity against human Huh-7 cells xenografted in BALB/c mouse assessed as tumor growth inhibition at 30 mg/kg, ip qd measured after 14 days; format: functional; conditions: Huh-7, 336 h, time 14 day, read-out: TGI
Huh-7 [19] = experiment: Antitumor activity against human Huh-7 cells xenografted in ip dosed BALB/c mouse assessed as reduction in tumor volume measured after 14 days; format: functional, organism-based; conditions: dose 15-30 mg/kg, time 14.0 day
SK-HEP1 [20] = experiment: Induction of apoptosis in human SK-HEP1 cells assessed as increase in Bax expression at 1.5 to 13.5 uM incubated for 48 hrs by Western blotting analysis; format: functional, cell-based; conditions: dose 1.5-13.5 µM
Huh-7 [21] = experiment: Antitumor activity against human Huh-7 cells xenografted in BALB/c mouse assessed as tumor growth inhibition at 15 mg/kg, ip qd measured after 14 days; format: functional; conditions: Huh-7, 336 h, time 14 day, read-out: TGI
[22] = Acute toxicity in BALB/c mouse assessed as change in body weight at 650 mg/kg, ip measured after 14 days; format: organism-based; conditions: in vivo, 336 h, time 14 day
Huh-7 [23] = experiment: Induction of apoptosis in human Huh-7 cells assessed as inhibition of caspase-9 expression incubated for 48 hrs by Western blotting analysis; format: functional, cell-based; conditions: dose 0.9-8.1 µM
Huh-7 [24] = experiment: Antitumor activity against human Huh-7 cells xenografted in BALB/c mouse assessed as reduction in tumor weight at 15 to 30 mg/kg, ip qd; format: functional, organism-based; conditions: dose 15-30 mg/kg, time 14.0 day, TDE = time-dependent effect
Huh-7 [25] = experiment: Antiproliferative activity against human Huh-7 cells assessed as reduction in ratio of EdU-positive cells measured after 24 hrs by EdU incorporation assay; format: functional, cell-based; conditions: dose 0.55-2.2 µM
SK-HEP1 [26] = experiment: Induction of apoptosis in human SK-HEP1 cells assessed as formation of apoptotic bodies at 1.5 to 13.5 uM incubated for 24 hrs by giemsa staining based micrscopic analysis; format: functional, cell-based; conditions: dose 1.5-13.5 µM
Huh-7 [27] = experiment: Inhibition of PI3K signalling pathway in human Huh-7 cells assessed as inhibition of PI3K phosphorylation at 0.9 to 8.1 uM measured after 48 hrs by Western blotting analysis; format: cell-based; conditions: dose 0.9-8.1 µM
SK-HEP1 [28] = experiment: Antiproliferative activity against human SK-HEP1 cells assessed as reduction in ratio of EdU-positive cells measured after 24 hrs by EdU incorporation assay; format: functional, cell-based; conditions: dose 1.25-5 µM
SK-HEP1 [29] = experiment: Inhibition of PI3K signalling pathway in human SK-HEP1 cells assessed as inhibition of PI3K phosphorylation at 1.5 to 13.5 uM measured after 48 hrs by Western blotting analysis; format: cell-based; conditions: dose 1.5-13.5 µM
HCCLM9 = experiment: Antiproliferative activity against human HCCLM9 cells assessed as inhibition of cell growth measured after 72 hrs by MTT assay; format: functional, cell-based; conditions: HCCLM9, 72 h
SK-HEP1 [30] = experiment: Induction of apoptosis in human SK-HEP1 cells assessed as cell membrane blebbing at 1.5 to 13.5 uM incubated for 24 hrs by giemsa staining based micrscopic analysis; format: functional; conditions: dose 1.5-13.5 µM
Huh-7 [31] = experiment: Induction of apoptosis in human Huh-7 cells assessed as increase in cytochrome-C expression at 0.9 to 8.1 uM incubated for 48 hrs by Western blotting analysis; format: functional, cell-based; conditions: dose 0.9-8.1 µM
[32] = biological target: Serine/threonine-protein kinase mTOR (Homo sapiens) (UniProt P42345); experiment: Inhibition of mTOR signalling pathway in human Huh-7 cells assessed as inhibition of mTOR phosphorylation at 0.9 to 8.1 uM measured after 48 hrs by Western blotting analysis; format: cell-based; conditions: dose 0.9-8.1 µM
SK-HEP1 [33] = experiment: Induction of apoptosis in human SK-HEP1 cells assessed as nuclear membrane breakdown at 1.5 to 13.5 uM incubated for 24 hrs by giemsa staining based micrscopic analysis; format: functional, cell-based; conditions: dose 1.5-13.5 µM
Huh-7 [34] = experiment: Induction of apoptosis in human Huh-7 cells assessed as increase in proportion of late apoptosis at 0.9 to 8.1 uM incubated for 24 hrs by Annexin V-AbFluor 488/propidium iodide staining based flow cytometry analysis; format: functional, cell-based; conditions: dose 0.9-8.1 µM
Huh-7 [35] = experiment: Induction of apoptosis in human Huh-7 cells assessed as cell shrinkage at 0.9 to 8.1 uM incubated for 24 hrs by giemsa staining based micrscopic analysis; format: functional; conditions: dose 0.9-8.1 µM

CC(=O)Oc1ccccc1/C=C/c1nccc2ccccc12
27.4%: inhibition in vivo at 15 mg/kg (Huh-7 [21])
Toxic: Activity [11]
active: Activity (SK-HEP1 [1]) Dose-Dependent Effect | Activity (Huh-7 [2]) | Activity (Huh-7 [3]) Dose-Dependent Effect | Activity (SK-HEP1 [4]) | Activity (Huh-7 [5]) Dose-Dependent Effect | Activity (SK-HEP1 [6]) Dose-Dependent Effect | inhibition (Huh-7 [7]) | Activity (Huh-7 [8]) Tde | Activity (Huh-7 [9]) Dose-Dependent Effect | Activity (SK-HEP1 [10]) | Activity (SK-HEP1 [12]) Dose-Dependent Effect | Activity (SK-HEP1 [13]) | Activity (Huh-7 [14]) | Activity (SK-HEP1 [15]) | Activity (Huh-7 [16]) | Activity (SK-HEP1 [17]) | Activity (Huh-7 [19]) Dose-Dependent Effect | Activity (SK-HEP1 [20]) | Activity (Huh-7 [23]) Dose-Dependent Effect | Activity (Huh-7 [24]) Tde | Activity (Huh-7 [25]) Dose-Dependent Effect | Activity (SK-HEP1 [26]) | inhibition (Huh-7 [27]) | Activity (SK-HEP1 [28]) Dose-Dependent Effect | inhibition (SK-HEP1 [29]) | Activity (SK-HEP1 [30]) | Activity (Huh-7 [31]) | Activity [32] | Activity (SK-HEP1 [33]) | Activity (Huh-7 [34]) | Activity (Huh-7 [35])
5.21: pIC50 (HCCLM9)
5.38: pIC50 (SK-HEP1 [1]; SK-HEP1, 72 h)
41.4%: inhibition in vivo at 30 mg/kg (Huh-7 [18])
Non-Toxic: Activity [22]
